Target: Complement factor D (Homo sapiens, UniProt P00746)
Assay: Human Factor D Assay: Human factor D (purified from human serum, Complement Technology, Inc.) at 80 nM final concentration is incubated with test compound at various concentrations for 5 minutes at room temperature in 50 mM Tris, 1M NaCl, pH 7.5. A synthetic substrate Z-L-Lys-SBzl and DTNB (Ellman's reagent) are added to final concentrations of 100 μM each. The increase in color is recorded at OD405 nm in a microplate in kinetic mode over 30 minutes with 30 second time points in a spectrofluorimeter. IC50 values are calculated by non-linear regression from the percentage of inhibition of complement factor D activity as a function of test compound concentration.

Sequence of Complement factor D (P00746 whole entry): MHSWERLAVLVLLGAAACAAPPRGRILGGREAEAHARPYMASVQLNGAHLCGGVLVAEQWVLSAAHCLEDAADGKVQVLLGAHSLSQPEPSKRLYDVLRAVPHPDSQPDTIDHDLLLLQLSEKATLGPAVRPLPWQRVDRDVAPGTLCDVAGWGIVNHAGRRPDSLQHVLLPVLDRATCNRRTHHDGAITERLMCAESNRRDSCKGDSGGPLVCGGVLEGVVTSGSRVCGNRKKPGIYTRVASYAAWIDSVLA

CC(=O)c1cn(CC(=O)N2C[C@H](F)C[C@H]2C(=O)NCc2cccc(Cl)c2F)c2cc(P(=O)(Oc3ccccc3)Oc3ccccc3)ccc12 was tested, and the IC50 was less than 1000 nM.

Reference: ChEMBL document CHEMBL5726269, “Phosphonate compounds for treatment of complement mediated disorders” (2017)
